Assays:
[1] = target: T1, human β2 adrenergic receptor (Homo sapiens, UniProt P07550); experiment: Whole-cell cAMP Flashplate assay with a lung epithelial cell line (BEAS-2B) endogenously expressing human β2 adrenergic receptor (Assay Test Procedure E); type: cell-based; conditions: BEAS-2B human lung epithelial cells, endogenous receptor
Experimental: For the determination of agonist potencies and efficacies (intrinsic activities) in a cell line expressing endogenous levels of the β2 adrenergic receptor, a human lung epithelial cell line (BEAS-2B) was used (ATCC CRL-9609, American Type Culture Collection, Manassas, Va.) (January B, et al., British Journal of Pharmacology, 1998, 123, 4, 701-11). Cells were grown to 75-90% confluency in complete, serum-free medium (LHC-9 MEDIUM containing Epinephrine and Retinoic Acid, cat #181-500, Biosource International, Camarillo, Calif.). […] On the day of the assay, cells were rinsed with PBS, lifted by scraping with 5 mM EDTA in PBS, and counted. […] Plates were sealed, incubated over night at 4° C. and counted the next morning in a Topcount scintillation counter (Packard BioScience Co., Meriden, Conn.). The amount of cAMP produced per mL of reaction was calculated based on the counts observed for samples and cAMP standards, as described in the manufacturer's user manual. Data were analyzed by nonlinear regression analysis with the GraphPad Prism Software package (GraphPad Software, Inc., San Diego, Calif.) using the 4-parameter model for sigmoidal dose-response. […]

[2] = target: T1, human β2 adrenergic receptor; experiment: Radioligand binding assay for human β2 adrenergic receptor (Assay Test Procedure A); design: expressed in transfected cells; host or cells: CHO cells, membranes; conditions: receptor subtype selectivity, human β1 versus β2
Experimental: Chinese hamster ovarian (CHO) cell lines stably expressing cloned human β1, β2 or β3 adrenergic receptors, respectively, were grown to near con fluency in Hams F-12 media with 10% FBS in the presence of 500 μg/mL Geneticin. The cell monolayer was lifted with 2 mM EDTA in PBS. Cells were pelleted by centrifugation at 1,000 rpm, and cell pellets were either stored frozen at −80° C. or membranes were prepared immediately for use. For preparation of β1 and β2 receptor expressing membranes, cell pellets were re-suspended in lysis buffer (10 mM HEPES/HCl, 10 mM EDTA, pH 7.4 at 4° C.) and homogenized using a tight-fitting Dounce glass homogenizer (30 strokes) on ice. […] The protein concentration of the membrane suspension was determined by the methods described in Lowry et al., 1951, Journal of Biological Chemistry, 193, 265; and Bradford, Analytical Biochemistry, 1976, 72, 248-54. […]
Binding assays were performed in 96-well microtiter plates in a total assay volume of 100 μL with 10-15 μg of membrane protein containing the human β1, β2 or β3 adrenergic receptors in assay buffer (75 mM Tris/HCl pH 7.4 at 25° C., 12.5 mM MgCl2, 1 mM EDTA, 0.2% BSA). […] Non-specific binding was determined in the presence of 10 μM propranolol. […] Filter plates were washed three times with filtration buffer (75 mM Tris/HCl pH 7.4 at 4° C., 12.5 mM MgCl2, 1 mM EDTA) to remove unbound radioactivity. […]

T1 sequence (P07550 whole entry): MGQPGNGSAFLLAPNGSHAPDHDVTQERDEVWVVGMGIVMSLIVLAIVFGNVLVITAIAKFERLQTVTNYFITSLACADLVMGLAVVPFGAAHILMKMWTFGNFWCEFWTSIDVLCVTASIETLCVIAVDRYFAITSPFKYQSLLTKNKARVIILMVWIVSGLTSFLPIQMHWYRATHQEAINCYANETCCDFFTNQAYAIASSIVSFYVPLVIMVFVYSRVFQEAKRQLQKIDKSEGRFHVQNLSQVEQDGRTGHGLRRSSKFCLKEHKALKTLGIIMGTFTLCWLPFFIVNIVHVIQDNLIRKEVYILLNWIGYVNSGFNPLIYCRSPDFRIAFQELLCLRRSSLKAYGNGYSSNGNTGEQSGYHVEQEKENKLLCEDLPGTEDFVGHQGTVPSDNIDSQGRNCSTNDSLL

EC50 [1]: < 0.01 µM
ratio of Ki(β1)/Ki(β2) [2]: greater than 8
SMILES: NC(=O)C(c1ccccc1)(c1ccccc1)[C@@H]1CCN(CCCCCCCCCNCC(O)c2ccc(O)c3[nH]c(=O)ccc23)C1 (mixture of isomers) [Example 1, 2-((S)-1-{9-[2-Hydroxy-2-(8-hydroxy-2-oxo-1,2-dihydroquinolin-5-yl)ethylamino]-nonyl}pyrrolidin-3-yl)-2,2-diphenylacetamide]

From US7829728B2, “Diarymethyl and related compounds” (Theravance, Inc., priority 2003, dated 2010)
